Measured values reported in patent publication US12186327B2, “Oral allopregnanolone compositions and methods of use” (Lipocine Inc., priority 2022, dated 2025).
In brackets after ≈: the same amount, converted by molar mass. Like-named read-outs stand apart in the source and are kept apart here.

How the values were obtained:
[1] = oral daily doses of 16-24 g for 14 days, human volunteers; cited from earlier work
[2] = in vivo; cited from earlier work
[3] = Allopregnanolone solubility in SBE-β-CD solution; assay type: physicochemical; details: for solubility: aqueous with cosolvent or surfactant or cyclodextrin
Experimental: The solubilized fraction of allopregnanolone began to decline, as observed by precipitation, when allopregnanolone concentration was above 8 mg/ml. The amount of allopregnanolone in the cyclodextrin solution can only be enabled by up to about 0.6% w/w loading amount of the composition fill. Moreover, high cyclodextrin amounts required to solubilize allopregnanolone also present safety concerns. In some aspects, the compositions and dosage forms of this invention can comprise higher allopregnanolone loading amounts (>5 mg/ml or 5 mg/g) than ones formulated in non-encapsulated SBE-β-CD or any cyclodextrin solution composition.

[4] = 30 mg capsule, cited from earlier work
[5] = once daily 30 mg capsule, 14 day treatment; cited from earlier work
[6] = target: a1b2g2 GABAA receptor (Homo sapiens, UniProt P14867+P47870); details: synaptic GABAA receptor; cited from earlier work
Sequence of a1b2g2 GABAA receptor (P14867 28-456): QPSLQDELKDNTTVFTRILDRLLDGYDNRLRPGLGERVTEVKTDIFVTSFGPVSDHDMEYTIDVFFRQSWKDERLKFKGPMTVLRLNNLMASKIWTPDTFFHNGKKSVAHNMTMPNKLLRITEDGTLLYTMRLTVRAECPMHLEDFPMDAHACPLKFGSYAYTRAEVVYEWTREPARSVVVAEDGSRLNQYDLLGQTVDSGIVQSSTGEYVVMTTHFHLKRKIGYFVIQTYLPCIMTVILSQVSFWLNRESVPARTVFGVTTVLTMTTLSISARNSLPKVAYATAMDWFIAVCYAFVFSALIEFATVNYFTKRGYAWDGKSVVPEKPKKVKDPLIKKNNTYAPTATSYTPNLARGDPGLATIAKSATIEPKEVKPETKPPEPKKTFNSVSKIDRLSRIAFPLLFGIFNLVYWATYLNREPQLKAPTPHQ
Sequence of a1b2g2 GABAA receptor (P47870 25-512 limits assumed): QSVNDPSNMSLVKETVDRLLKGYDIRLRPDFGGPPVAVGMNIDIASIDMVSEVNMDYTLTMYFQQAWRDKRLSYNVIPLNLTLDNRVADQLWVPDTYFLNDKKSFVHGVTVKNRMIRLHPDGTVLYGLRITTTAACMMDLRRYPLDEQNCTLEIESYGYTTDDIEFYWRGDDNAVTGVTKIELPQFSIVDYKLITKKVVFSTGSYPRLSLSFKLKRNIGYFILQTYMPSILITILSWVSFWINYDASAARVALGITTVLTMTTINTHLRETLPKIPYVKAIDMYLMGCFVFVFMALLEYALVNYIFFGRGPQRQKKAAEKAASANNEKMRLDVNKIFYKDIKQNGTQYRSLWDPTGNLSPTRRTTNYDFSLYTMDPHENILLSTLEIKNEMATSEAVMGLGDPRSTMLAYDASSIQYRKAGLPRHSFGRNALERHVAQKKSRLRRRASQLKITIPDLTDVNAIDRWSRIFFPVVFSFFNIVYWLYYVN
Sequence of a1b2g2 GABAA receptor (P18507 40-475 partner): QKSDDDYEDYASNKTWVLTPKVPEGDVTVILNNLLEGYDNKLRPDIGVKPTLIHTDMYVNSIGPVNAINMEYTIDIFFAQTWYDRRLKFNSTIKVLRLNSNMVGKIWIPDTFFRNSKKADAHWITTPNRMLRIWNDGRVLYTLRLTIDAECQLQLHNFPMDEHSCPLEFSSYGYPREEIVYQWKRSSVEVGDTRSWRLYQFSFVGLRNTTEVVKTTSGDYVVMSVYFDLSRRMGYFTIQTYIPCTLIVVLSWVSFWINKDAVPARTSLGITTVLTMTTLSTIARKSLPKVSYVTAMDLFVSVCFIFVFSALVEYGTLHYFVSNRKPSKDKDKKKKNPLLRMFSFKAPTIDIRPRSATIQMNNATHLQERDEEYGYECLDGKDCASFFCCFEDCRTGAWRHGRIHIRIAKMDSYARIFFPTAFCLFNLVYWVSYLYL

Compound: hydroxy propyl-β-CD
- digestive problems [1]: increased incidence of soft stools and diarrhea

Compound: CC(=O)[C@H]1CC[C@H]2[C@@H]3CC[C@H]4C[C@H](O)CC[C@]4(C)[C@H]3CC[C@]12C [allopregnanolone, 3α-hydroxy-5α-pregnan-20-one]
- oral bioavailability [2]: low
- solubility ([3]; cyclodextrin (SBE-β-CD) solution, read-out: allopregnanolone concentration above which the solubilized fraction declined (precipitation)): > 8000 µg/mL
- solubility ([3]; in 24% w/v non-encapsulated SBE-β-CD solution, read-out: allopregnanolone solubility): ~6000 µg/mL (≈ 18.8 mM)
- loading amount of the composition fill enabled in cyclodextrin solution ([3]; cyclodextrin solution): up to 0.6 % w/w

Compound: C[C@@]1(O)CC[C@H]2[C@H](CC[C@@H]3[C@@H]2CC[C@]2(C)[C@@H](C(=O)Cn4cc(C#N)cn4)CC[C@@H]32)C1 [ZURANOLONE]
- Cmax ([4]; single dose with a standard fat meal): about 64 ng/ml
- Cmax ([4]; single dose, fasted condition): about 23 ng/ml
- efficacy in postpartum depression [5]: acceptable efficacy
- less potent than allopregnanolone, based on a1b2g2 Qpatch EC50 [6]: about 33%
